# Assay results published in US20240228501A1, “IMIDAZOLE-CONTAINING CONDENSED RING DERIVATIVE, PREPARATION METHOD THEREFOR, AND APPLICATION THEREOF IN MEDICINE” (CHANGCHUN GENESCIENCE PHARMACEUTICAL CO., LTD., priority 2021, published 2024).
# Target: T1, human NK-3 receptor (Homo sapiens, UniProt P29371)
# T1 construct: expressed in transfected cells; host or cells: HEK293
# T1 sequence (P29371 1-465): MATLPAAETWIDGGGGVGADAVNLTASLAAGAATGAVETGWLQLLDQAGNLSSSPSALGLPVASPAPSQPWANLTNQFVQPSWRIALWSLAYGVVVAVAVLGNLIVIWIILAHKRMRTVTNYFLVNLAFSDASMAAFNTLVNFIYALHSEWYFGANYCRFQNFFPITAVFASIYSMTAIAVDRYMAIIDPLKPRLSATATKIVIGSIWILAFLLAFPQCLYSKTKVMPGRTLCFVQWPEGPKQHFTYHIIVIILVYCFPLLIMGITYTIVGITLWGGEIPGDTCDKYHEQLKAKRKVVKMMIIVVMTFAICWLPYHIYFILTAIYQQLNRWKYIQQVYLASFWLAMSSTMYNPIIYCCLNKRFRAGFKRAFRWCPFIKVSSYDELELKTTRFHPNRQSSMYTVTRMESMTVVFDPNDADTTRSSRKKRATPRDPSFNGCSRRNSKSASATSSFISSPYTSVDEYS
# Assay: Antagonistic activity on human NK-3 receptor in human NK-3R/HEK293 stably transfected cells (Fluo-4, FLIPR, Neurokinin B as agonist)
# Assay type: cell-based
# Conditions: human NK-3R/HEK293 cells
# Procedure: Test Example 1: Determination of Activity of Compounds of the Present Invention on Human NK-3 Receptor
# This method is used to determine antagonistic effects of the compounds of the present invention on the activity of human NK-3 receptor proteins expressed in cell lines stably transfected with human NK-3R/HEK293.
# 2.1 The cell lines stably transfected with human NK-3R/HEK293 were inoculated in a 384-well cell culture plate at a inoculation density of 12,000 cells/well/25 μL, and cultured at 37° C. and 5% CO2 overnight;
# 2.2 20× Component A was frozen and thawed to room temperature, diluted 2× with Assay Buffer to working concentration, and kept at room temperature for later use;
# 2.3 The cell culture plate was equilibrated at room temperature for 10 min, the culture medium was removed, and 20 μL of Assay Buffer and 20 μL of 2× Component A […] were added, followed by centrifugation at 200 g at room temperature for 3-5 sec, and incubation at 37° C. for 2 h;
# 2.4 The compound was diluted 3 times with DMSO in 384 PP_DMSO plate, and then 240 nl/well of the compound was transferred into a working plate with Echo 550, centrifugated at 200 g at room temperature for 1 min; 40 μl of Assay Buffer was added into the working plate, centrifugated at 200 g at room temperature for 1 min, and then fully mixed in an oscillator at 2500 rpm for 20 min, and then centrifugated at 200 g at room temperature for 1 min for later use;
# 2.5 2.5 nM Neurokinin B TFA (6×) was prepared from Assay Buffer, 50 uL of which was transferred onto 3657 plate for later use;
# 2.6 The cell culture plate was taken out and left to stand at room temperature for 10 min, then […] the compound diluted in step 2.4 was added into corresponding wells, and the cell culture plate was left to stand at 25° C. for 30 min; and
# 2.7 10 μL of the compound diluted in step 2.5 was added into the corresponding experimental wells with FLIPR Tetra, and data was collected.
# The antagonistic activity of the compounds of the present invention on the human NK-3 receptor was determined through the above experiments, to obtain inhibition curves of the compounds of the present invention and determine concentrations (IC50) of the corresponding compounds that inhibit 50% of the reference agonist.
row,SMILES,IC50 [µM]
1,"COc1cc(-c2nc(-c3nc(C)ns3)n3c2[C@@H](C)N(C(=O)c2ccc(F)cc2)CC3)ccn1 [Compound 080, (R)-(1-(2-methoxypyridin-4-yl)-8-methyl-3-(3-methyl-1,2,4-thiadiazol-5-yl)-5,6-dihydroimidazo[1,5-a]pyrazin-7 (8H)-yl)(4-fluorophenyl)methanone]",0.0845
2,"Cc1cc(-c2nc(-c3nc(C)ns3)n3c2[C@@H](C)N(C(=O)c2ccc(F)cc2)CC3)ccn1 [Compound 043, (R)-(4-fluorophenyl)(8-methyl-3-(3-methyl-1,2,4-thiadiazol-5-yl)-1-(2-methylpyridin-4-yl)-5,6-dihydroimidazo[1,5-a]pyrazin-7 (8H)-yl)methanone]",0.0296
3,"Cc1nsc(-c2nc(-c3c(F)cccc3F)c3n2CCN(C(=O)c2ccc(F)cc2)[C@@H]3C)n1 [Compound 063, (R)-(1-(2,6-difluorophenyl)-8-methyl-3-(3-methyl-1,2,4-thiadiazol-5-yl)-5,6-dihydroimidazo[1,5-a]pyrazin-7 (8H)-yl)(4-fluorophenyl)methanone]",0.0476
4,"Cc1nsc(-c2nc(NS(C)(=O)=O)c3n2CCN(C(=O)c2ccc(F)cc2)[C@@H]3C)n1 [Compound 040, (R)—N-(7-(4-fluorobenzoyl)-8-methyl-3-(3-methyl-1,2,4-thiadiazol-5-yl)-5,6,7,8-tetrahydroimidazo[1,5-a]pyrazin-1-yl)methanesulfonamide]",0.0517
5,"Cc1nsc(-c2nc(N3CC=CC3=O)c3n2CCN(C(=O)c2ccc(F)cc2)[C@@H]3C)n1 [Compound 096, (R)-1-(7-(4-fluorobenzoyl)-8-methyl-3-(3-methyl-1,2,4-thiadiazol-5-yl)-5,6,7,8-tetrahydroimidazo[1,5-a]pyrazin-1-yl)-1,5-dihydro-2H-pyrrol-2-one]",0.0679
6,"Cc1nsc(-c2nc(N3CCCC3=O)c3n2CCN(C(=O)c2ccc(F)cc2C)[C@@H]3C)n1 [Compound 128, (R)-1-(7-(4-fluoro-2-methylbenzoyl)-8-methyl-3-(3-methyl-1,2,4-thiadiazol-5-yl)-5,6,7,8-tetrahydroimidazo[1,5-a]pyrazin-1-yl)pyrrolidin-2-one]",0.0846
7,"Cc1nsc(-c2nc(C(F)F)c3n2CCN(C(=O)c2ccc(F)cc2)[C@@H]3C)n1 [Compound 197, (R)-(1-(difluoromethyl)-8-methyl-3-(3-methyl-1,2,4-thiadiazol-5-yl)-5,6-dihydroimidazo[1,5-a]pyrazin-7 (8H)-yl)(4-fluorophenyl)methanone]",0.216
8,"Cc1nsc(-c2nc(N3CCOCC3)c3n2CCN(C(=O)c2ccc(F)cc2)[C@@H]3C)n1 [Compound 033, (R)-(4-fluorophenyl)(8-methyl-3-(3-methyl-1,2,4-thiadiazol-5-yl)-1-morpholino-5,6-dihydroimidazo[1,5-a]pyrazin-7 (8H)-yl)methanone]",0.0506
9,Cc1nsc(-c2nc(N3C[C@H](N)CC3=O)c3n2CCN(C(=O)c2ccc(F)cc2)[C@@H]3C)n1 [Compound 129],0.0425
10,Cc1nsc(-c2nc(N3CCCCCC3=O)c3n2CCN(C(=O)c2ccc(F)cc2)[C@@H]3C)n1 [Compound 117],0.0725
11,"Cc1nsc(-c2nc(N3CCOCCC3=O)c3n2CCN(C(=O)c2ccc(F)cc2)[C@@H]3C)n1 [Compound 114, (R)-1-[7-(4-fluorobenzoyl)-8-methyl-3-(3-methyl-1,2,4-thiadiazol-5-yl)-5,6,7,8-tetrahydroimidazo[1,5-a]pyrazin-1-yl]-1,4-azepan-5-one]",0.0287
12,"C[C@@H]1c2c(N3CCCC3=O)nc(-c3nc(C(F)(F)F)cs3)n2CCN1C(=O)c1ccc(F)cc1 [Compound 118, (R)-1-(7-(4-fluorobenzoyl)-8-methyl-3-(4-(trifluoromethyl)thiazol-2-yl)-5,6,7,8-tetrahydroimidazo[1,5-a]pyrazin-1-yl)pyrrolidin-2-one]",0.0517
13,"Cc1nsc(-c2nc(-c3ccco3)c3n2CCN(C(=O)c2ccc(F)cc2)[C@@H]3C)n1 [Compound 218, (R)-(4-fluorophenyl)(1-(furan-2-yl)-8-methyl-3-(3-methyl-1,2,4-thiadiazol-5-yl)-5,6-dihydroimidazo[1,5-a]pyrazin-7 (8H)-yl)methanone]",0.225
14,"Cc1nsc(-c2nc(N3C[C@@H](O)CC3=O)c3n2CCN(C(=O)c2ccc(F)cc2)[C@@H]3C)n1 [Compound 104, (S)-1-((R)-7-(4-fluorobenzoyl)-8-methyl-3-(3-methyl-1,2,4-thiadiazol-5-yl)-5,6,7,8-tetrahydroimidazo[1,5-a]pyrazin-1-yl)-4-hydroxypyrrolidin-2-one]",0.031
15,"Cc1nsc(-c2nc(N3Cc4ccccc4CC3=O)c3n2CCN(C(=O)c2ccc(F)cc2)[C@@H]3C)n1 [Compound 100, (R)-2-(7-(4-fluorobenzoyl)-8-methyl-3-(3-methyl-1,2,4-thiadiazol-5-yl)-5,6,7,8-tetrahydroimidazo[1,5-a]pyrazin-1-yl)-1,4-dihydroisoquinolin-3 (2H)-one]",0.0519
16,"Cc1nsc(-c2nc(N3COCC3=O)c3n2CCN(C(=O)c2ccc(F)cc2)C3C)n1 (stereo not drawn) [Compound 169, 3-(7-(4-fluorobenzoyl)-8-methyl-3-(3-methyl-1,2,4-thiadiazol-5-yl)-5,6,7,8-tetrahydroimidazo[1,5-a]pyrazin-1-yl)oxazolidin-4-one]",0.0657

# Compounds with a lower IC50, results first:
row,IC50 [µM],SMILES
1,0.0269,"CC(=O)N(C)c1nc(-c2nc(C)ns2)n2c1[C@@H](C)N(C(=O)c1ccc(F)cc1)CC2 [Compound 060, (R)—N-(7-(4-fluorobenzoyl)-8-methyl-3-(3-methyl-1,2,4-thiadiazol-5-yl)-5,6,7,8-tetrahydroimidazo[1,5-a]pyrazin-1-yl)-N-methylacetamide]"
2,0.023,"Cc1nsc(-c2nc(N3CCNCC3=O)c3n2CCN(C(=O)c2ccc(F)cc2)[C@@H]3C)n1 [Compound 123, (R)-1-(7-(4-fluorobenzoyl)-8-methyl-3-(3-methyl-1,2,4-thiadiazol-5-yl)-5,6,7,8-tetrahydroimidazo[1,5-a]pyrazin-1-yl)piperazin-2-one]"
3,0.0202,"Cc1nsc(-c2nc(N3CCOC3=O)c3n2CCN(C(=O)c2ccc(F)cc2)[C@@H]3C)n1 [Compound 101, (R)-3-(7-(4-fluorobenzoyl)-8-methyl-3-(3-methyl-1,2,4-thiadiazol-5-yl)-5,6,7,8-tetrahydroimidazo[1,5-a]pyrazin-1-yl)oxazolidin-2-one]"
4,0.0202,"Cc1nsc(-c2nc(-c3cc(F)nc(F)c3)c3n2CCN(C(=O)c2ccc(F)cc2)[C@@H]3C)n1 [Compound 053, (R)-(1-(2,6-difluoropyridin-4-yl)-8-methyl-3-(3-methyl-1,2,4-thiadiazol-5-yl)-5,6-dihydroimidazo[1,5-a]pyrazin-7 (8H)-yl)(4-fluorophenyl)methanone]"
5,0.0168,"Cc1nsc(-c2nc(N3CCOCC3=O)c3n2CCN(C(=O)c2ccc(F)cc2)[C@@H]3C)n1 [Compound 072, (R)-4-(7-(4-fluorobenzoyl)-8-methyl-3-(3-methyl-1,2,4-thiadiazol-5-yl)-5,6,7,8-tetrahydroimidazo[1,5-a]pyrazin-1-yl)morpholin-3-one]"
6,0.0161,"CC(=O)N[C@@H]1CC(=O)N(c2nc(-c3nc(C)ns3)n3c2[C@@H](C)N(C(=O)c2ccc(F)cc2)CC3)C1 [Compound 132, N—{(R)-1-[(R)-7-(4-fluorobenzoyl)-8-methyl-3-(3-methyl-1,2,4-thiadiazol-5-yl)-5,6,7,8-tetrahydroimidazo[1,5-a]pyrazin-1-yl]-5-oxopyrrolidin-3-yl}acetamide]"
7,0.0119,"Cc1nsc(-c2nc(N3CCC(O)CC3=O)c3n2CCN(C(=O)c2ccc(F)cc2)[C@@H]3C)n1 (stereo partly drawn) [Compound 116, 1-[(R)-7-(4-fluorobenzoyl)-8-methyl-3-(3-methyl-1,2,4-thiadiazol-5-yl)-5,6,7,8-tetrahydroimidazo[1,5-a]pyrazin-1-yl]-4-hydroxypiperidin-2-one]"
8,0.00702,"Cc1nsc(-c2nc(-c3ccncc3F)c3n2CCN(C(=O)c2ccc(F)cc2)[C@@H]3C)n1 [Compound 046, (R)-(4-fluorophenyl)(1-(3-fluoropyridin-4-yl)-8-methyl-3-(3-methyl-1,2,4-thiadiazol-5-yl)-5,6-dihydroimidazo[1,5-a]pyrazin-7 (8H)-yl)methanone]"
